The source of these data is patent US10543254B2, “Composition containing neuropeptide Y for inhibiting side effects of anticancer agents” (KYUNGPOOK NATIONAL UNIVERSITY INDUSTRY-ACADEMIC COOPERATION …, priority 2014, dated 2020).

The test system of series [1] is cisplatin-induced bone marrow injury. In words: Complete blood count 4 weeks after bone marrow transplantation. The series is classed as in vivo, mice. Particulars: for HCT (hematocrit) / Hgb (hemoglobin) / MCH (mean corpuscular hemoglobin) / MCHC (mean corpuscular hemoglobin concentration) / MCV (mean cell volume) / MPV (mean platelet volume) / PLT (platelets) / RBC (red blood cell) / RDW-CV (red cell volume distribution width-coefficient of variation) / WBC (white blood cell): complete blood count 4 weeks after transplantation, groups PBS or cisplatin / PBS or NPY. From the text: (§1) The mice were lethally irradiated (10 Gy, two split doses) and injected with 1×10^6 BM from CD45.1^+ (BoyJ) mice. After 4 weeks, the mice were sacrificed, and bone marrow and blood were obtained for analysis.
(§2) Next, to evaluate further whether NPY treatment prevents cisplatin-induced mouse death and injury of BM, bone marrow mononuclear cells (BMNCs) were transplanted into cisplatin-treated mice with or without NPY treatment after lethal irradiation. FIG. 2H illustrates an experimental design for verifying whether NPY protects a Th^+ fiber from cisplatin-induced bone marrow injury and whether to accelerate posttransplant bone marrow recovery.
Table 1 is a diagram illustrating an increase in blood cell recovery in NPY-treated mice after cisplatin treatment. A complete blood count was performed by targeting PBS or cisplatin-treated mice after 4 weeks after transplantation and after NPY treatment.

The subject of series [2] is cisplatin-induced neuropathy. The experiment in a line: Hot-plate (heated-pad) test of sensory neuropathy after seven cycles of cisplatin with or without NPY. The class given is in vivo, mice. On the procedure:
(§3) Cisplatin (Enzo; 10 mg per kg body weight once per week) was used to induce SNS injury. Mice received i.p. injections of cisplatin for 7 weeks as described. The mice were euthanized after 2 weeks after the last injection of cisplatin (for full bone marrow recovery).
(§4) To assess neuroprotection from cisplatin, mice were injected i.p. with NPY (Bachem, H-6375) daily during the 7-week cisplatin treatment period.
For measuring effects of different treatments on sensory responses, a hot-plate test was performed.
A hot plate (Leica) was maintained at 50° C. and each mouse was positioned on the end of the heated surface, first nociception, that is, a time until jumping or paw licking was measured. A cut-off time was set as 60 seconds. For the measurement, the heated surface was cleaned with a detergent and ethanol and a temperature was maintained at 50° C.
Next, control, Lyz2-cre; Y1^fl/fl, or Col1a1-cre; Y1^fl/fl mice were treated with seven cycles of cisplatin for the induction of neuropathy. In some animals, NPY was administered during cisplatin chemotherapy. […]
FIG. 2B illustrates a quantitative analysis result of sympathetic neuropathy (after 2 weeks after the last cisplatin injection) in a control group, Lyz2-cre; Y1^fl/fl or Col1a1-cre; Y1^fl/fl mice treated with cisplatin alone or cisplatin and NPY (n=6-10 mice per group, i.p). […]

Series [3] concerns cisplatin-induced bone marrow injury. In words: Bone marrow transplantation after lethal irradiation in cisplatin-treated mice with or without NPY: survival and bone marrow recovery. The class given is in vivo. On the procedure:
as §3, §4, §1, §2
FIG. 2I illustrates a survival result of mice of each group (n=10-15 mice per group).
FIG. 2J is a diagram illustrating the number of BMNCs (left side), a percentage of LSK cells (middle), and LT-HSCs (right side) in BM of WT mice treated with PBS, cisplatin or NPY, which are evaluated after 4 weeks after transplanting bone marrow (n=5-6 mice per group).
FIG. 2K illustrates a percentage of nestin-positive and CD31^+ endothelial cells in the femur of each group.

In series [4] the test system is cisplatin-induced sympathetic nervous system (SNS) injury. The experiment in a line: Quantification of Th+ fibers and nestin-positive and CD31+ endothelial cells in bone marrow after cisplatin with or without NPY. The class given is in vivo, mice. On the procedure: as §3, §4
Next, control, Lyz2-cre; Y1^fl/fl, or Col1a1-cre; Y1^fl/fl mice were treated with seven cycles of cisplatin for the induction of neuropathy. In some animals, NPY was administered during cisplatin chemotherapy. FIG. 2A is an experimental design for determining an effect of the Y1 receptor in the macrophages or osteoblasts in cisplatin-induced neuropathy, after NPY treatment.
Further, FIG. 2E is a diagram illustrating a quantitative analysis of a Th^+ fiber in BM of each group (n=5-6 mice per group).
FIG. 2F is a diagram illustrating the number (n=5-6 mice per group) of nestin-positive and CD31^+ endothelial cells per femoral region of each group.

[5] abbreviates: NPY i.p. daily during 7-week cisplatin treatment, cisplatin-treated control or Col1a1-cre, Y1fl/fl mice.

Turning to `N.N.[Cl][Pt][Cl]` [Cisplatin, cisplatin, reference compound], in series [1], the “HCT (hematocrit)” value is given as 53.5 ± 6.1%, the “Hgb (hemoglobin)” value was 12.8 ± 0.8 g/dL, the “MCH (mean corpuscular hemoglobin)” value turned out to be 17.1 ± 0.8 pg and the “MCHC (mean corpuscular hemoglobin concentration)” value came to 27.0 ± 4.2 g/dL. In series [1], the “MCV (mean cell volume)” value was determined as 66.1 ± 5.2 fL, the “MPV (mean platelet volume)” value was 11.3 ± 2.3 fL, the “PLT (platelets)” value is listed as 165.7 ± 42.4 m/mm^3 and the “RBC (red blood cell)” value came out at 6.1 ± 0.8 m/mm^3. Also, in series [1], the “RDW-CV (red cell volume distribution width-coefficient of variation)” value is 19.4 ± 0.3% and the “WBC (white blood cell)” value is 2.2 ± 0.4 m/mm^3. Also, the “sensory neuropathy (hot-plate latency)” value in series [2] (2 weeks after the last injection, cisplatin 10 mg per kg i.p. once per week for 7 weeks) is listed as “had sensory neuropathy”.

In the case of neuropeptide Y [NPY], the blood cell recovery entry in series [1] (NPY-treated mice after cisplatin treatment, 4 weeks after transplantation) is given as “increase”. Besides, in series [1], the “HCT (hematocrit)” value is recorded as 49.5 ± 9.3%, the “Hgb (hemoglobin)” value was determined as 14.4 ± 0.9 g/dL, the “MCH (mean corpuscular hemoglobin)” value came out at 17.35 ± 1.4 pg and the “MCHC (mean corpuscular hemoglobin concentration)” value is 33.2 ± 7.6 g/dL. In series [1], the “MCV (mean cell volume)” value was found to be 58.2 ± 8.8 fL, the “MPV (mean platelet volume)” value was 11.4 ± 2.8 fL, the “PLT (platelets)” value came out at 219.3 ± 65.8 m/mm^3 and the “RBC (red blood cell)” value is reported as 8.4 ± 0.4 m/mm^3. Besides, in series [1], the “RDW-CV (red cell volume distribution width-coefficient of variation)” value came to 19.4 ± 0.8% and the “WBC (white blood cell)” value is reported as 5.3 ± 0.4 m/mm^3. The “numbers of nestin-positive and CD31+ endothelial cells in the femur” value in series [3] (cisplatin-treated mice after transplantation) is given as “restored”. For the same molecule, the “bone marrow function after transplantation (BMNCs, LSK cells, LT-HSCs)” value in series [3] (cisplatin-treated mice, 4 weeks after transplanting bone marrow) is “restored”. Further, the mouse survival entry in series [3] (cisplatin-treated mice, lethal irradiation and BMNC transplantation) is “enhanced”. Moreover, in series [2] (setting [5]), the “sensory neuropathy (hot-plate latency)” value was “improved”. In addition, in series [4] (setting [5]), the “number of nestin-positive and CD31+ endothelial cells” value was “improved”; the “reduced density of Th+ fibers in BM” value is “improved”. For the same molecule, the “protection of Th+ fibers and perivascular niche cells” value in series [4] (cisplatin-treated Lyz2-cre, Y1fl/fl mice (no Y1 receptor in macrophages)) is recorded as “did not show NPY-mediated protection”.
